This note sets out measurements from ChEMBL document CHEMBL1201862, “PubChem BioAssay data set” (2004).

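Interpolation was linear, between the two tested concentrations surrounding the appropriate level; five concentrations were tested over 48 hours in 96-well plates. GI50 = concentration required for 50% inhibition of growth.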 Calls of active or inactive are those of the source. No stated cut-off is given here; in the data, active = GI50 up to about 1.1 µM and inactive = higher.

Assay in all cases: DTP human tumour cell line panel, 48 h
In test [1] the test system is SNB-75.
The test system of test [2] is SK-OV-3.
The subject of test [3] is OVCAR-4.
Test [4] concerns SNB-19.
The subject of test [5] is U-251.
Test [6] deals with M14.
For test [7], the system named is BT-549.
Test [8] relates to A549.
Test [9] relates to UACC-62.
Test [10] deals with SK-MEL-2.
Test [11] relates to SF-539.
Test [12] relates to NCI-H226.
In test [13] the test system is KM12.
Test [14] concerns UO-31.
Test [15] relates to HCC 2998.
In test [16] the test system is 786-0.
Test [17] relates to MDA-MB-435.
Test [18] has as its system RXF 393.
In test [19] the test system is TK-10.
Test [20] relates to LOX IMVI.

As for `CCOC(=O)C(C(=O)COC(C)(C)C)[C@@H]1C=C[C@H](OC(C)=O)C1` (stereo partly specified), the GI50 in [1], in [2], in test [3], in test [4], in [5] and in test [6] was > 100 µM (inactive) in each case. Besides, the GI50 in test [7], in test [8], in [9], in test [10], in test [11] and in test [12] was > 100 µM (inactive) throughout. Moreover, the GI50 in [13], in [14], in test [15], in [16] and in [17] was > 100 µM (inactive) throughout.

Take `O=C1C2=Nc3ccccc3C(O)(C(=O)O)N2c2ccccc21` (stereo unspecified): the GI50 (usually the concentration that inhibits growth by half) is 40 µM (inactive) in test [18]; 27.2 µM (inactive) in test [1]; 81.7 µM (inactive) in test [19]; 14.3 µM (inactive) in [3]; 19.9 µM (inactive) in test [5]; > 10 µM (inactive) in test [7]. The GI50 in test [8] was 7.66 µM (inactive); in test [10], 13.3 µM (inactive); in test [11], 26.4 µM (inactive); in test [12], > 100 µM (inactive); in test [13], 26.9 µM (inactive); in [14] it was 12.5 µM (inactive). Also, the GI50 is 20.1 µM (inactive) in test [20], 45.2 µM (inactive) in [15], 36.5 µM (inactive) in [16] and 2.26 µM (inactive) in test [17].

Consider `COc1ccc(-n2c(C)nc3ccc(NC4OCC(OC(C)=O)C(OC(C)=O)C4OC(C)=O)cc3c2=O)cc1` (stereo unspecified), for which the GI50 in [18], in [1], in test [19], in [3], in test [4] and in test [5] was > 100 µM (inactive) in each case. Besides, the GI50 in test [7], in [9], in test [10], in [12], in [13] and in [14] was > 100 µM (inactive) in each case. In addition, the GI50 in [20] is > 100 µM (inactive); in test [15], 97.1 µM (inactive); in test [16], > 100 µM (inactive); in test [17] it was > 100 µM (inactive).

Turning to `N#CC(C#N)/N=N/c1ccc(-c2nc3ccccc3o2)cc1`, the GI50 was 24.4 µM (inactive) in test [1]; 11 µM (inactive) in [19]; 18.6 µM (inactive) in [2]; 12 µM (inactive) in test [3]; 24.7 µM (inactive) in test [4]; 14.3 µM (inactive) in test [5]. Moreover, the GI50 is 15.2 µM (inactive) in test [6]; 12.1 µM (inactive) in test [7]; 21 µM (inactive) in test [8]; 6.05 µM (inactive) in test [9]; 12.4 µM (inactive) in test [10]; 12.2 µM (inactive) in test [11]. Also, the GI50 was 20.9 µM (inactive) in test [13]; 13 µM (inactive) in [14]; 13.1 µM (inactive) in test [20]; 1.22 µM (inactive) in test [15]; 14.4 µM (inactive) in [16]; 16.5 µM (inactive) in [17].

Take `COC(=O)NN(C(=O)OC)c1c(-c2ccccc2)nc(SC)n1N`: the GI50 in [18], in [1], in test [19], in [3], in [4] and in test [5] was > 100 µM (inactive) throughout. Besides, the GI50 in [6], in [7], in [8], in [9], in [10] and in test [11] was > 100 µM (inactive) in each case. Also, the GI50 in test [12], in test [13], in test [14], in [20], in test [15] and in test [16] was > 100 µM (inactive) each time. Besides, the GI50 in test [17] is > 100 µM (inactive).

`O=C1CCc2cc(Br)ccc2O1`: the GI50 in [18] is 28.2 µM (inactive); in [1], 30.4 µM (inactive); in test [19], 45.7 µM (inactive); in test [3], > 100 µM (inactive); in test [4], 25 µM (inactive); in [5] it was 30 µM (inactive). For the same compound, the GI50 in test [6] is 57 µM (inactive); in test [7], 62.8 µM (inactive); in test [8], > 100 µM (inactive); in test [9] it was > 100 µM (inactive); in [10] it was > 100 µM (inactive); in test [11], 32.9 µM (inactive). In addition, the GI50 is > 100 µM (inactive) in test [12]; 50.5 µM (inactive) in test [20]; > 100 µM (inactive) in [15]; 29.2 µM (inactive) in test [16]; > 100 µM (inactive) in test [17].

As for `c1ccc(C(/C(=N/c2ccc(Cc3ccc(/N=C(\C(c4ccccc4)c4ccccc4)N4CC4)cc3)cc2)N2CC2)c2ccccc2)cc1`, the GI50 is 1.09 µM (active) in test [18]; 14.2 µM (inactive) in [19]; < 0.01 µM (active) in test [2]; 13.1 µM (inactive) in test [4]; 12.7 µM (inactive) in test [5]; 14.3 µM (inactive) in [6]. Besides, the GI50 in [7] was 10.5 µM (inactive); in [8] it was 7.36 µM (inactive); in test [9] it was 2.32 µM (inactive); in test [10], 7.01 µM (inactive); in test [11] it was 16.3 µM (inactive); in [12], 14.7 µM (inactive). In addition, the GI50 in test [13] was 6.28 µM (inactive); in test [14] it was 2.6 µM (inactive); in [20] it was 1.53 µM (inactive); in test [15] it was 10.1 µM (inactive); in test [16], 14.8 µM (inactive); in [17], 8.73 µM (inactive).

Consider `COc1cccc2cc(C(=O)Nc3ccccc3)c(=N)oc12`, for which the GI50 is > 100 µM (inactive) in test [18]; 16.7 µM (inactive) in test [1]; > 100 µM (inactive) in test [19]; > 64 µM (inactive) in test [2]; > 100 µM (inactive) in test [3]; > 75.9 µM (inactive) in test [4]. In addition, the GI50 in test [5] is 67.6 µM (inactive); in [6], > 100 µM (inactive); in test [7] it was > 100 µM (inactive); in [8] it was > 100 µM (inactive); in [9] it was 62.4 µM (inactive); in [10], > 100 µM (inactive). Moreover, the GI50 in test [11] was > 100 µM (inactive); in test [12] it was > 100 µM (inactive); in test [13], > 29.6 µM (inactive); in [14], > 48.1 µM (inactive); in test [20], > 100 µM (inactive); in [16] it was 15.7 µM (inactive). Besides, the GI50 in [17] is > 100 µM (inactive).

Consider `O=C1CSC(c2ccc([N+](=O)[O-])cc2)N1c1ccc(-c2ccc(-n3c(-c4ccccc4)nc4ccccc4c3=O)cc2)cc1` (stereo unspecified), for which the GI50 was 66.2 µM (inactive) in test [19]; > 100 µM (inactive) in test [2]; 34.2 µM (inactive) in test [3]; > 100 µM (inactive) in [4]; 83 µM (inactive) in test [5]; 59 µM (inactive) in test [6]. The GI50 in test [7] was 53.3 µM (inactive); in test [8], 57 µM (inactive); in test [9] it was 35.1 µM (inactive); in test [10] it was 44.2 µM (inactive); in test [11], > 100 µM (inactive); in test [12], 56.1 µM (inactive). The GI50 in [13] was 21.4 µM (inactive); in test [14] it was 46.8 µM (inactive); in test [20], 52.5 µM (inactive); in [15] it was 35.7 µM (inactive); in [16], 70.8 µM (inactive); in test [17], 59.7 µM (inactive).

On to `CSCCCN(CCCSC)CCCSC`, for which the GI50 in [1] was 48.5 µM (inactive); in test [2], > 100 µM (inactive); in test [3] it was > 100 µM (inactive); in test [4] it was > 100 µM (inactive); in test [5], > 100 µM (inactive); in test [6], > 100 µM (inactive). Besides, the GI50 in test [7] is > 100 µM (inactive); in test [8], > 100 µM (inactive); in [9], 97.5 µM (inactive); in test [11], > 100 µM (inactive); in test [13], > 100 µM (inactive); in test [14], > 100 µM (inactive). Also, the GI50 in test [20] was > 100 µM (inactive); in test [15], > 100 µM (inactive); in test [16], > 100 µM (inactive); in test [17], 55.6 µM (inactive).

Consider `CC(C)(C)OC(=O)NNC(=O)C1Cc2ccccc2OC1=O` (stereo unspecified), for which the GI50 in test [18], in test [19], in test [2], in test [4], in test [5] and in test [6] was > 100 µM (inactive) throughout. Also, the GI50 in test [7], in test [8], in test [9], in test [10], in test [11] and in test [12] was > 100 µM (inactive) in each case. Also, the GI50 in test [13], in test [14], in test [15], in [16] and in [17] was > 100 µM (inactive) in each case.
